Calls of active or inactive are those of the source. No cut-off for these calls is given here.
Columns and labels:
[1] = molecular target: T1, von Hippel-Lindau disease tumor suppressor/Ubiquitin carboxyl-terminal hydrolase 7 (Homo sapiens, UniProt Q93009+P40337); assay: PROTACT activity at USP7/VHL in human RS4;11 cells assessed as protein degradation at 100 nM measured after 24 hrs by Western blot analysis relative to control; type: cell-based
[2] = molecular target: T1, von Hippel-Lindau disease tumor suppressor/Ubiquitin carboxyl-terminal hydrolase 7; assay: PROTACT activity at USP7/VHL in human RS4;11 cells assessed as protein degradation at 10 nM measured after 24 hrs by Western blot analysis relative to control; type: cell-based
[3] = molecular target: T1, von Hippel-Lindau disease tumor suppressor/Ubiquitin carboxyl-terminal hydrolase 7; assay: PROTACT activity at USP7/VHL in human RS4;11 cells assessed as protein degradation at 10 to 100 nM measured after 12 hrs by Western blot analysis; type: cell-based; conditions: dose 10-100 nM
RS4-11 [4] = assay: Antiproliferative activity against human RS4-11 cells with shp53 assessed as cell viability measured after 7 days by PMS-MTS assay; type: functional, cell-based; conditions: RS4-11, 168 h
RS4-11 [5] = assay: Antiproliferative activity against human RS4-11 cells with wild type p53 assessed as cell viability measured after 3 days by PMS-MTS assay; type: functional, cell-based; conditions: RS4-11, 72 h
[6] = molecular target: T1, von Hippel-Lindau disease tumor suppressor/Ubiquitin carboxyl-terminal hydrolase 7; assay: PROTACT activity at USP7/VHL in human OCI-Ly10 cells assessed as protein degradation at 10 to 100 nM measured after 12 hrs by Western blot analysis; type: cell-based; conditions: dose 10-100 nM
REH = assay: Antiproliferative activity against human REH cells with wild type p53 assessed as cell viability measured after 3 days by PMS-MTS assay; type: functional, cell-based; conditions: 72 h
[7] = molecular target: T1, von Hippel-Lindau disease tumor suppressor/Ubiquitin carboxyl-terminal hydrolase 7; assay: PROTACT activity at USP7/VHL in human REH cells assessed as protein degradation at 10 to 100 nM measured after 12 hrs by Western blot analysis; type: cell-based; conditions: dose 10-100 nM
[8] = molecular target: von Hippel-Lindau disease tumor suppressor/USP7; assay: PROTACT activity at USP7 (unknown origin) /E3 ligase (unknown origin) assessed as protein degradation
MDA-MB-468 = assay: Antiproliferative activity against human MDA-MB-468 cells assessed as cell viability measured after 6 days by Celltiter glo2.0 cell viability assay; type: functional, cell-based; conditions: MDA-MB-468, 144 h
[9] = molecular target: Protein cereblon/Ubiquitin carboxyl-terminal hydrolase 7 (Homo sapiens, UniProt Q93009+Q96SW2); assay: PROTACT activity at USP7/CRBN in human CAL-33 cells assessed as protein degradation measured after 72 hrs by immune blot analysis; type: cell-based
Sequence of Protein cereblon/Ubiquitin carboxyl-terminal hydrolase 7 (Q93009 whole entry): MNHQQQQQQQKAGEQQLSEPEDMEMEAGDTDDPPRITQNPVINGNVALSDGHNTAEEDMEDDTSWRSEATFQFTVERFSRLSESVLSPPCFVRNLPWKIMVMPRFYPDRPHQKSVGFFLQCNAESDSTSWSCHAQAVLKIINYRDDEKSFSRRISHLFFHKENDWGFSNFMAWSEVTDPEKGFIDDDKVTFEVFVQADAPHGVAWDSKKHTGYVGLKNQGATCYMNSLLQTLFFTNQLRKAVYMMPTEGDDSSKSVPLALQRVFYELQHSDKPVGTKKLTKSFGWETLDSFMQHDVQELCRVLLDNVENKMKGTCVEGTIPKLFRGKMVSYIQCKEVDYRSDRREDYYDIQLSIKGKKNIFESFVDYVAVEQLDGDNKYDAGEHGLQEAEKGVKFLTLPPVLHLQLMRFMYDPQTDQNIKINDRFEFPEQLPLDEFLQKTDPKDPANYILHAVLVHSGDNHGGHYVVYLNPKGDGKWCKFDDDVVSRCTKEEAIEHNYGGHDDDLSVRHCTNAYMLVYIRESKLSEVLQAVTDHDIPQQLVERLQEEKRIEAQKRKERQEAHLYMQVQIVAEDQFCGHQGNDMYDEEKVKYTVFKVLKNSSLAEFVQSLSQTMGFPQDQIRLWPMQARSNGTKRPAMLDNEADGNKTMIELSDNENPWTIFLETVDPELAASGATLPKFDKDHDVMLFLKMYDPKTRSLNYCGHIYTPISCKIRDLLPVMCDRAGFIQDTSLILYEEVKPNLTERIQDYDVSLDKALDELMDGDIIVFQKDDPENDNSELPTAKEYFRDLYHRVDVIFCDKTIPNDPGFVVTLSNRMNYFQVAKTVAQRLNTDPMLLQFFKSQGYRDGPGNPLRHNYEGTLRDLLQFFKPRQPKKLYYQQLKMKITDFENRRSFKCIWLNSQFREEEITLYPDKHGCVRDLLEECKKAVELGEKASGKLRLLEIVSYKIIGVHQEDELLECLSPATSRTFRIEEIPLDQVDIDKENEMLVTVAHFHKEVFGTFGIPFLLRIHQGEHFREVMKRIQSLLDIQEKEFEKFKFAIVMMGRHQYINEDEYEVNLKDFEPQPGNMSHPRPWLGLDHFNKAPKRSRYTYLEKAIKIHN
Sequence of Protein cereblon/Ubiquitin carboxyl-terminal hydrolase 7 (Q96SW2 whole entry): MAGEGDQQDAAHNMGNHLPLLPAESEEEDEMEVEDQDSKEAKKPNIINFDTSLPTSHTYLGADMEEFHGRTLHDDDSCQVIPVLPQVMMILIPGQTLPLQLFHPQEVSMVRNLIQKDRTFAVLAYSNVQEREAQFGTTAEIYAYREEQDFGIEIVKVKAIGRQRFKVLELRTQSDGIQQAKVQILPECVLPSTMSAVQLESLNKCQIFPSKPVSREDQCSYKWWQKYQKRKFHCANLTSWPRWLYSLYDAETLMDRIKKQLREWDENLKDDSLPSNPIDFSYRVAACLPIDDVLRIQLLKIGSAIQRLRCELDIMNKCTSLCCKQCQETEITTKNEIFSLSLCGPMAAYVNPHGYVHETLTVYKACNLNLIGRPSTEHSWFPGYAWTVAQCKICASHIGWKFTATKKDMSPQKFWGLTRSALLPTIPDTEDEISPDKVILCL

BT-549 = assay: Antiproliferative activity against human BT-549 cells assessed as cell viability measured after 6 days by Celltiter glo2.0 cell viability assay; type: functional, cell-based; conditions: BT-549, 144 h

T1 sequence (P40337 whole entry, looked up): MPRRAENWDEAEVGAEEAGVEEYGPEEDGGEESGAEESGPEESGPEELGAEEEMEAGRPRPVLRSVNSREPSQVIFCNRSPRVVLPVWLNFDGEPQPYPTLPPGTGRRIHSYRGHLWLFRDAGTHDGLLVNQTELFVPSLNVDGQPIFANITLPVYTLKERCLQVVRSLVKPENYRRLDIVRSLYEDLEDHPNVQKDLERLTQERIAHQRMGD
T1 sequence (Q93009 whole entry, looked up): as the sequence (Q93009 whole entry) above

Row | Activity [1] [%] | Activity [2] [%] | Compound | also measured
1 | 66.7 | 30.1 | Cc1ncsc1-c1ccc([C@H](C)NC(=O)[C@@H]2C[C@@H](O)CN2C(=O)[C@@H](NC(=O)CCCCCCCCCCNCc2ccc(-c3c4ncn(CC5(O)CCN(C(=O)C[C@@H](C)c6ccccc6)CC5)c(=O)c4nn3C)cc2)C(C)(C)C)cc1 | –
2 | 39.1 | 26.1 | Cc1ncsc1-c1ccc([C@H](C)NC(=O)[C@@H]2C[C@@H](O)CN2C(=O)[C@@H](NC(=O)CCCCCCCCNCc2ccc(-c3c4ncn(CC5(O)CCN(C(=O)C[C@@H](C)c6ccccc6)CC5)c(=O)c4nn3C)cc2)C(C)(C)C)cc1 | –
3 | – | – | Cc1ncsc1-c1ccc([C@H](C)NC(=O)[C@@H]2C[C@H](O)CN2C(=O)[C@@H](c2cc(N3CCN(Cc4ccc(-c5c6ncn(CC7(O)CCN(C(=O)C[C@@H](C)c8ccccc8)CC7)c(=O)c6nn5C)cc4)CC3)no2)C(C)C)cc1 | Activity [3]: inactive; IC50 (RS4-11 [4]): > 20000 nM; IC50 (RS4-11 [5]): 873 nM; Activity [6]: inactive; IC50 (REH): 7390 nM; Activity [7]: inactive
4 | – | – | C[C@H](CC(=O)N1CCC(O)(Cn2cnc3c(-c4ccc(CNCCCCCCCCCCCNc5cccc6c5C(=O)N(C5CCC(=O)NC5=O)C6=O)cc4)n(C)nc3c2=O)CC1)c1ccccc1 (some centres not stated) | DC50 [8]: ~33 nM
5 | 55.1 | 29.2 | Cc1ncsc1-c1ccc([C@H](C)NC(=O)[C@@H]2C[C@@H](O)CN2C(=O)[C@@H](NC(=O)CCCCCCCCCNCc2ccc(-c3c4ncn(CC5(O)CCN(C(=O)C[C@@H](C)c6ccccc6)CC5)c(=O)c4nn3C)cc2)C(C)(C)C)cc1 | –
6 | 37.7 | 22.2 | Cc1ncsc1-c1ccc([C@H](C)NC(=O)[C@@H]2C[C@@H](O)CN2C(=O)[C@@H](c2cc(N3CCC(CN4CCC(NCc5ccc(-c6c7ncn(CC8(O)CCN(C(=O)C[C@@H](C)c9ccccc9)CC8)c(=O)c7nn6C)cc5)CC4)CC3)no2)C(C)C)cc1 | –
7 | 44.4 | 13 | Cc1ncsc1-c1ccc([C@H](C)NC(=O)[C@@H]2C[C@@H](O)CN2C(=O)[C@@H](NC(=O)CCOCCOCCOCCOCCNCc2ccc(-c3c4ncn(CC5(O)CCN(C(=O)C[C@@H](C)c6ccccc6)CC5)c(=O)c4nn3C)cc2)C(C)(C)C)cc1 | –
8 | 33.6 | 26.1 | Cc1ncsc1-c1ccc([C@H](C)NC(=O)[C@@H]2C[C@@H](O)CN2C(=O)[C@@H](NC(=O)CCOCCOCCOCCNCc2ccc(-c3c4ncn(CC5(O)CCN(C(=O)C[C@@H](C)c6ccccc6)CC5)c(=O)c4nn3C)cc2)C(C)(C)C)cc1 | –
9 | 25.6 | 15.5 | Cc1ncsc1-c1ccc([C@H](C)NC(=O)[C@@H]2C[C@@H](O)CN2C(=O)[C@@H](c2cc(N3CCC(N4CC(CNCc5ccc(-c6c7ncn(CC8(O)CCN(C(=O)C[C@@H](C)c9ccccc9)CC8)c(=O)c7nn6C)cc5)C4)CC3)no2)C(C)C)cc1 | –
10 | 75.5 | 31.9 | Cc1ncsc1-c1ccc([C@H](C)NC(=O)[C@@H]2C[C@@H](O)CN2C(=O)[C@@H](NC(=O)CCCCCCCCCCCNCc2ccc(-c3c4ncn(CC5(O)CCN(C(=O)C[C@@H](C)c6ccccc6)CC5)c(=O)c4nn3C)cc2)C(C)(C)C)cc1 | –
11 | 55.1 | 35 | Cc1ncsc1-c1ccc([C@H](C)NC(=O)[C@@H]2C[C@@H](O)CN2C(=O)[C@@H](c2cc(N3CCC(CN4CC(CNCc5ccc(-c6c7ncn(CC8(O)CCN(C(=O)C[C@@H](C)c9ccccc9)CC8)c(=O)c7nn6C)cc5)C4)CC3)no2)C(C)C)cc1 | –
12 | 26.8 | 12.8 | Cc1ncsc1-c1ccc([C@H](C)NC(=O)[C@@H]2C[C@@H](O)CN2C(=O)[C@@H](NC(=O)CCOCCOCCNCc2ccc(-c3c4ncn(CC5(O)CCN(C(=O)C[C@@H](C)c6ccccc6)CC5)c(=O)c4nn3C)cc2)C(C)(C)C)cc1 | –
13 | 56.5 | 38 | Cc1ncsc1-c1ccc([C@H](C)NC(=O)[C@@H]2C[C@@H](O)CN2C(=O)[C@@H](NC(=O)CCCCCNCc2ccc(-c3c4ncn(CC5(O)CCN(C(=O)C[C@@H](C)c6ccccc6)CC5)c(=O)c4nn3C)cc2)C(C)(C)C)cc1 | –
14 | – | – | O=C1CCC(N2Cc3c(CCCCCN4CCN(CCC(=O)Nc5ccc6c(=O)n(CC7(O)CCN(C(=O)C(CCCNC(=O)c8ccc9c(Cl)c%10c(nc9c8)CCCC%10)Cc8ccccc8)CC7)cnc6c5)CC4)cccc3C2=O)C(=O)N1 (configuration not stated) | IC50 (MDA-MB-468): 1800 nM; DC50 [9]: 4.3 nM; IC50 (BT-549): 2800 nM
15 | 60.2 | 0.4 | Cc1ncsc1-c1ccc([C@H](C)NC(=O)[C@@H]2C[C@@H](O)CN2C(=O)[C@@H](c2cc(N3CCC(CN4CC(NCc5ccc(-c6c7ncn(CC8(O)CCN(C(=O)C[C@@H](C)c9ccccc9)CC8)c(=O)c7nn6C)cc5)C4)CC3)no2)C(C)C)cc1 | –
16 | 58.1 | 46.9 | Cc1ncsc1-c1ccc([C@H](C)NC(=O)[C@@H]2C[C@@H](O)CN2C(=O)[C@@H](NC(=O)CCCCCCCNCc2ccc(-c3c4ncn(CC5(O)CCN(C(=O)C[C@@H](C)c6ccccc6)CC5)c(=O)c4nn3C)cc2)C(C)(C)C)cc1 | –
17 | 91.3 | 69.5 | Cc1ncsc1-c1ccc([C@H](C)NC(=O)[C@@H]2C[C@@H](O)CN2C(=O)[C@@H](c2cc(N3CCC(CNCc4ccc(-c5c6ncn(CC7(O)CCN(C(=O)C[C@@H](C)c8ccccc8)CC7)c(=O)c6nn5C)cc4)CC3)no2)C(C)C)cc1 | –
18 | 73.5 | 50.8 | Cc1ncsc1-c1ccc([C@H](C)NC(=O)[C@@H]2C[C@@H](O)CN2C(=O)[C@@H](c2cc(N3CCC(CN4CCC(CNCc5ccc(-c6c7ncn(CC8(O)CCN(C(=O)C[C@@H](C)c9ccccc9)CC8)c(=O)c7nn6C)cc5)CC4)CC3)no2)C(C)C)cc1 | –
19 | 16.9 | 16 | Cc1ncsc1-c1ccc([C@H](C)NC(=O)[C@@H]2C[C@@H](O)CN2C(=O)[C@@H](c2cc(N3CCC(N4CC(NCc5ccc(-c6c7ncn(CC8(O)CCN(C(=O)C[C@@H](C)c9ccccc9)CC8)c(=O)c7nn6C)cc5)C4)CC3)no2)C(C)C)cc1 | –
20 | 37.3 | 25.6 | Cc1ncsc1-c1ccc([C@H](C)NC(=O)[C@@H]2C[C@@H](O)CN2C(=O)[C@@H](c2cc(N3CCC(N4CCC(NCc5ccc(-c6c7ncn(CC8(O)CCN(C(=O)C[C@@H](C)c9ccccc9)CC8)c(=O)c7nn6C)cc5)CC4)CC3)no2)C(C)C)cc1 | –
21 | – | – | C[C@H](CC(=O)N1CCC(O)(Cn2cnc3c(-c4ccc(CN)cc4)n(C)nc3c2=O)CC1)c1ccccc1 | IC50 (RS4-11 [4]): > 20000 nM; IC50 (RS4-11 [5]): 69 nM; IC50 (REH): 20.3 nM
